Drawing on patent publication US7332476B2, “Pyridyl substituted ketolide antibiotics” (Novartis AG, priority 2003, dated 2008), this text covers MIC for eight molecules.

Assay in all cases: MIC, broth microdilution (NCCLS)
In experiment [1] the test system is Enterococcus faecalis Enfa_29212. In kind it is cell-based. Conditions: Table 5, Strain ID C (Table 4): E. faecalis Enfa_29212. The method, boiled down:
(§1)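 NCCLS broth microdilution with 2-fold serial drug dilutions (methanol stocks diluted in water); inoculum 3×10^5–7×10^5 CFU/ml in CAMHB, with 2-5% lysed horse blood for S. pneumoniae. Incubation 18-24 h at 35° C., ambient air, except S. pneumoniae (5-10% CO2). MIC is lowest concentration preventing visible growth.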

The subject of experiment [2] is Haemophilus influenzae Hain_49247. The class given is cell-based. Conditions: Table 5, Strain ID L (Table 4): H. influenzae Hain_49247; unit assumed.
Experiment [3] has as its system Staphylococcus epidermidis Step_14990. In kind it is cell-based. Conditions: Table 5, Strain ID A (Table 4): S. epidermidis Step_14990; in µg/mL (unit assumed). The method, boiled down:
as §1

For experiment [4], the system named is Staphylococcus epidermidis Step_f50654. In kind it is cell-based. To be noted: Table 5, Strain ID B (Table 4): S. epidermidis Step_f50654 Pen S; in µg/mL (unit assumed). The method, boiled down: as §1
The test system of experiment [5] is Streptococcus pneumoniae Stpn_Erm S 4297. The class given is cell-based. To be noted: Table 5, Strain ID I (Table 4): S. pneumoniae Stpn_Erm S 4297. The method, boiled down: as §1
The subject of experiment [6] is Streptococcus pneumoniae Stpn_Mef S 3427. The class given is cell-based. To be noted: Table 5, Strain ID K (Table 4): S. pneumoniae Stpn_Mef S 3427. In a few lines: as §1
Experiment [7] has as its system Streptococcus pyogenes Stpy_8668. In kind it is cell-based. Conditions: Table 5, Strain ID D (Table 4): S. pyogenes Stpy_8668. In a few lines: as §1
The test system of experiment [8] is Streptococcus pneumoniae Stpn_49619. In kind it is cell-based. To be noted: Table 5, Strain ID E (Table 4): S. pneumoniae Stpn_49619. The method, boiled down: as §1
In experiment [9] the test system is Streptococcus pneumoniae Stpn_297-749. In kind it is cell-based. To be noted: Table 5, Strain ID F (Table 4): S. pneumoniae Stpn_297-749 Pen R. In a few lines:
as §1

The subject of experiment [10] is Streptococcus pneumoniae Stpn_280-962. The class given is cell-based. Conditions: Table 5, Strain ID G (Table 4): S. pneumoniae Stpn_280-962 Pen S. In a few lines:
as §1

Experiment [11] relates to S. pneumoniae Stpn_Erm 6849. The class given is cell-based, Streptococcus pneumoniae. Conditions: Table 5, Strain ID H (Table 4): S. pneumoniae Stpn_Erm 6849; unit assumed. The method, boiled down:
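S. pneumoniae MIC by NCCLS broth microdilution in cation-adjusted Mueller-Hinton broth with 2-5% lysed horse blood, inoculum 3×10^5–7×10^5 CFU/ml, 2-fold drug dilutions. Incubated 18-24 hours at 35° C. in 5-10% CO2; MIC is lowest concentration preventing visible growth.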

For experiment [12], the system named is Streptococcus pneumoniae Stpn_Mef 5654. The class given is cell-based. To be noted: Table 5, Strain ID J (Table 4): S. pneumoniae Stpn_Mef 5654; in µg/mL (unit assumed). In a few lines:
as §1

The test system of another experiment is E. coli Esco_25922. In kind it is cell-based. To be noted: Table 5, Strain ID M (Table 4): E. coli Esco_25922; unit assumed. On the procedure: Strains. The bacterial isolates listed in Table 4 were cultivated from −70° C. frozen stocks by two consecutive overnight passages (P1, P2) at 35° C. on 5% blood agar (Remel, Lenexa, Kans.). Chocolate agar (Remel) is used for Haemophilus influenzae. H. influenzae and Streptococcus pneumoniae are incubated in 5-10% CO2
Drug Stock Preparation. To determine the amount of solvent to be used to give the desired final concentration, the formula “weight obtained in mg/final concentration in mg/ml” will be used. It will give the amount of solvent in ml needed to be added to give the desired concentration. For example, if 2.5 mg/ml is the desired concentration and the weight of compound is 13.7 mg, then the amount of solvent to be added is […]. Methanol is used as the solvent to dissolve the test compounds. Further dilution of stock is done in sterile, deionized water. Drug stocks are kept frozen at −70° C., protected from light.
Susceptibility Testing. MICs are determined by the broth microdilution method in accordance with the NCCLS guidelines. In brief, organism suspensions are adjusted to a 0.5 McFarland standard to yield a final inoculum between 3×10^5 and 7×10^5 CFU/ml. Drug dilutions and inocula are made in sterile, cation adjusted Mueller-Hinton Broth (CAMHB) (Remel) for all but S. pneumoniae [CAMHB with 2-5% lysed horse blood (Remel)] and H. influenzae [Haemophilus Test Medium (Remel)]. An inoculum volume of 100 μl is added to wells containing 100 μl of broth with 2-fold serial dilutions of drug. All inoculated microdilution trays are incubated in ambient air at 35° C. for 18-24 hours, except for S. pneumoniae, and H. influenzae (both at 5-10% CO2).
Following appropriate incubation, the MIC is determined and the MIC is defined as the lowest concentration of the drug that prevented visible growth.

In brackets after ≈: the same amount, converted by molar mass.

Turning to `CC[C@H]1OC(=O)[C@H](C)C(=O)[C@H](C)[C@@H](OC2O[C@H](C)C[C@H](N(C)C)[C@H]2O)[C@@](C)(OC)C[C@@H](C)C(=O)[C@H](C)[C@@H]2[C@@H]1OC(=O)N2CCCn1cnc(-c2ccccc2)c1` (some centres unmarked) [Compound 4714], the MIC in [1] (in µg/mL (unit assumed)) is 0.4; in [2], more than 50 µg/mL; in [3], 6.25; in experiment [4] it was 6.25; in [5] (unit assumed), 6.25 µg/mL (≈ 7.98 µM); in experiment [6] (in µg/mL (unit assumed)), 0.1. The MIC in experiment [7] (unit assumed) was 0.1 µg/mL (≈ 0.128 µM); in experiment [8], “=0.5”; in [9], “=0.5”; in experiment [10] it was “=0.5”; in experiment [11] it was more than 50 µg/mL; in [12], 0.4. The same molecule returned an MIC against E. coli Esco_25922 of more than 50 µg/mL.

In the case of `CC[C@H]1OC(=O)[C@H](C)C(=O)[C@H](C)[C@@H](OC2O[C@H](C)C[C@H](N(C)C)[C@H]2O)[C@@](C)(OC)C[C@@H](C)C2=NCCN3C(=O)O[C@H]1[C@H]3[C@H]2C` (some centres unmarked) [Compound 6222], the MIC was 0.4 in experiment [1] (in µg/mL (unit assumed)); 25 µg/mL (≈ 40.1 µM) in [2]; 1.56 in experiment [3]; 1.56 in experiment [4]; more than 50 µg/mL in [5] (unit assumed); 0.4 in experiment [6] (in µg/mL (unit assumed)). Moreover, the MIC in experiment [7] (unit assumed) is 0.2 µg/mL (≈ 0.321 µM); in experiment [8] (unit assumed), 0.2 µg/mL (≈ 0.321 µM); in experiment [9] (unit assumed), 0.4 µg/mL (≈ 0.641 µM); in [10] (unit assumed), 0.2 µg/mL (≈ 0.321 µM); in experiment [11], more than 50 µg/mL; in [12], 0.78. This molecule registered an MIC in the experiment with E. coli Esco_25922 of 50 µg/mL (≈ 80.2 µM).

For `CC[C@H]1OC(=O)[C@H](C)C(=O)[C@H](C)[C@@H](OC2O[C@H](C)C[C@H](N(C)C)[C@H]2O)[C@@](C)(OC)C[C@@H](C)C2=N[C@@H](C)CN3C(=O)O[C@H]1[C@H]3[C@H]2C` (some centres unmarked) [Compound 6223], the MIC was 0.78 in [1] (in µg/mL (unit assumed)); more than 50 µg/mL in experiment [2]; 1.56 in [3]; 3.13 in experiment [4]; more than 50 µg/mL in experiment [5] (unit assumed); 0.4 in [6] (in µg/mL (unit assumed)). In addition, the MIC in experiment [7] (unit assumed) is 0.2 µg/mL (≈ 0.314 µM); in experiment [8] (unit assumed) it was 0.2 µg/mL (≈ 0.314 µM); in experiment [9] (unit assumed) it was 0.2 µg/mL (≈ 0.314 µM); in experiment [10] (unit assumed) it was 0.2 µg/mL (≈ 0.314 µM); in experiment [11], more than 50 µg/mL; in [12], 0.78. Moreover, in the experiment on E. coli Esco_25922, the MIC was found to be 50 µg/mL (≈ 78.4 µM).

In the case of `CC[C@H]1OC(=O)[C@H](C)C(=O)[C@H](C)[C@@H](OC2O[C@H](C)C[C@H](N(C)C)[C@H]2O)[C@@](C)(OC)C[C@@H](C)C(=O)[C@H](C)[C@H]2NC(=O)O[C@@H]21` (some centres unmarked) [Compound 4266], the MIC in experiment [1] (in µg/mL (unit assumed)) was 1.56; in experiment [2] it was 25 µg/mL (≈ 41.8 µM); in experiment [3] it was 3.13; in experiment [4], 3.13; in experiment [5] (unit assumed) it was more than 50 µg/mL; in [6] (in µg/mL (unit assumed)) it was 0.1. Besides, the MIC was 0.1 µg/mL (≈ 0.167 µM) in [7] (unit assumed); 0.2 µg/mL (≈ 0.334 µM) in experiment [8] (unit assumed); “=0.05” in experiment [9]; “=0.05” in [10]; more than 50 µg/mL in experiment [11]; 0.2 in [12]. In the experiment with E. coli Esco_25922, this molecule yielded an MIC of more than 50 µg/mL.

Regarding `CC[C@H]1OC(=O)[C@H](C)C(=O)[C@H](C)[C@@H](OC2O[C@H](C)C[C@H](N(C)C)[C@H]2O)[C@@](C)(OC)C[C@@H](C)C(=O)[C@H](C)[C@@H]2[C@@H]1OC(=O)N2CCCCn1cnc(-c2ccccc2)c1` (some centres unmarked) [Compound 4710], the MIC entry in [1] was “=0.05”; in [2], 3.13 µg/mL (≈ 3.93 µM); in [3], 0.1; in [4] it was 0.2; in [5], “=0.05”; in experiment [6] it was “=0.5”. Further, the MIC result is “=0.5” in experiment [7]; “=0.5” in [8]; “=0.5” in [9]; “=0.5” in experiment [10]; 0.2 µg/mL (≈ 0.251 µM) in experiment [11]; 0.2 in [12]. This molecule registered an MIC against E. coli Esco_25922 of 50 µg/mL (≈ 62.7 µM).

As to `CC[C@H]1OC(=O)[C@H](C)C(=O)[C@H](C)[C@@H](OC2O[C@H](C)C[C@H](N(C)C)[C@H]2O)[C@@](C)(OC)C[C@@H](C)C(=O)[C@H](C)[C@@H]2[C@@H]1OC(=O)N2CCCCc1ccnc2ccccc12` (some centres unmarked) [Compound 6220], the MIC result in [1] is “=0.05”; in experiment [2] it was 1.56 µg/mL (≈ 1.99 µM); in experiment [3], 0.1; in [4], 0.1; in [5] (unit assumed), 0.1 µg/mL (≈ 0.128 µM); in experiment [6] it was “=0.5”. In addition, the MIC entry in experiment [7] was “=0.05”; in [8] it was “=0.05”; in [9] it was “=0.05”; in [10] it was “=0.05”; in experiment [11], 3.13 µg/mL (≈ 4 µM); in [12], 0.4. The MIC against E. coli Esco_25922 worked out at 6.25 µg/mL (≈ 7.99 µM).

With `CC[C@H]1OC(=O)[C@H](C)C(=O)[C@H](C)[C@@H](OC2O[C@H](C)C[C@H](N(C)C)[C@H]2O)[C@@](C)(OC)C[C@@H](C)C(=O)[C@H](C)[C@@H]2[C@@H]1OC(=O)N2CCCn1cnc2cccnc21` (some centres unmarked) [Compound 4716], the MIC in experiment [1] (in µg/mL (unit assumed)) stood at 0.78; in experiment [2], 25 µg/mL (≈ 33 µM); in experiment [3], 6.25; in experiment [4], 12.5; in experiment [5] (unit assumed), 25 µg/mL (≈ 33 µM); in [6] (in µg/mL (unit assumed)), 0.4. For the same molecule, the MIC in experiment [7] (unit assumed) is 0.1 µg/mL (≈ 0.132 µM); in experiment [8] it was “=0.5”; in experiment [9], “=0.5”; in [10] it was “=0.5”; in experiment [11], more than 50 µg/mL; in experiment [12] it was 0.78. The molecule further displayed an MIC in the experiment with E. coli Esco_25922 of more than 50 µg/mL.

For the molecule `CC[C@H]1OC(=O)[C@H](C)C(=O)[C@H](C)[C@@H](OC2O[C@H](C)C[C@H](N(C)C)[C@H]2O)[C@@](C)(OC)C[C@@H](C)C(=O)[C@H](C)[C@@H]2[C@@H]1OC(=O)N2CCCCn1ccc2ccccc21` (some centres unmarked) [Compound 4717], the MIC was 0.1 in experiment [1] (in µg/mL (unit assumed)); 6.25 µg/mL (≈ 8.12 µM) in experiment [2]; 0.2 in experiment [3]; 0.4 in experiment [4]; 0.4 µg/mL (≈ 0.519 µM) in [5] (unit assumed); “=0.05” in experiment [6]. Further, the MIC result is “=0.5” in [7]; “=0.5” in [8]; “=0.5” in [9]; “=0.5” in [10]; 6.25 µg/mL (≈ 8.12 µM) in [11]; 0.2 in [12]. In the experiment with E. coli Esco_25922, this molecule had an MIC of more than 50 µg/mL.
